# Measurements published in ChEMBL document CHEMBL1201862, “PubChem BioAssay data set” (2004).
# Activity calls are given as the source filed them.
# Assays:
# Cytochrome P450 2D6 = Cytochrome P450 2D6 (Homo sapiens, UniProt P10635);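 note: CYP2D6 member of a cytochrome P450 panel assay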
# [1] = target: T1, Apoptotic protease-activating factor 1 (Homo sapiens, UniProt O14727); test: activation of Apaf-1 mediated apoptosis – fluorescent, uHTS hits, dose response (AID 588554); type: functional
# T1 sequence (O14727 whole entry): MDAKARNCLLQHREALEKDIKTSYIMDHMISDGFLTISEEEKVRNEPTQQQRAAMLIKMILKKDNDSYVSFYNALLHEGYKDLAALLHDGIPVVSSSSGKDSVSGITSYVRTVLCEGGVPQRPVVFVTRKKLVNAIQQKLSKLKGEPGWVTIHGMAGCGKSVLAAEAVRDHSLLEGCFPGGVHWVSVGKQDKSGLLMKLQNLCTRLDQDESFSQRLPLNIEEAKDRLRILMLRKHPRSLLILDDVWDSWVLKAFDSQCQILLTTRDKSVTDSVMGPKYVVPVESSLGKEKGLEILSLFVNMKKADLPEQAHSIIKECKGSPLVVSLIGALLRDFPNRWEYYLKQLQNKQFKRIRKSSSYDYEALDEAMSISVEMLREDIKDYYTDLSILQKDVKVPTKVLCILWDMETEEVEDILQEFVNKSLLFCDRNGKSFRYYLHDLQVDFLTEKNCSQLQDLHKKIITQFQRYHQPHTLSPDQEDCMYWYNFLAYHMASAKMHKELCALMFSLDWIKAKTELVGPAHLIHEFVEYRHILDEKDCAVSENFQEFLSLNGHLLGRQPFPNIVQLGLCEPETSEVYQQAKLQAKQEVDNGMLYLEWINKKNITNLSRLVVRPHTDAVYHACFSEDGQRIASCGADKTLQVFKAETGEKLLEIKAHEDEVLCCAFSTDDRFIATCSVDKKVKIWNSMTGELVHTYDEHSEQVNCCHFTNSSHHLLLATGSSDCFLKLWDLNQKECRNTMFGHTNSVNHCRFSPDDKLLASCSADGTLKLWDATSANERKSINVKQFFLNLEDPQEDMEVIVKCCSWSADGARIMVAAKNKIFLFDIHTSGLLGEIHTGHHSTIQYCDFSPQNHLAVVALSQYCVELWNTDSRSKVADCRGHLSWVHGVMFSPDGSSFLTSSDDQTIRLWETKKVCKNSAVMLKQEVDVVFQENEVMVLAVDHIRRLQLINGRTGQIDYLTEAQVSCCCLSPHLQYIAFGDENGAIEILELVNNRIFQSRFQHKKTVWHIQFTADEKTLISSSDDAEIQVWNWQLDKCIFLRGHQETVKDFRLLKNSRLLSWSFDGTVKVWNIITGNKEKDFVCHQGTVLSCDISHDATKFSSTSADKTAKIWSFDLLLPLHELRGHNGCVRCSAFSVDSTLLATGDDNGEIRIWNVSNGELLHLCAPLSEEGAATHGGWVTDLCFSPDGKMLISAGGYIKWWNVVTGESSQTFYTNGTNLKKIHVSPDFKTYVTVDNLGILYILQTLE
# [2] = target: Envelope glycoprotein gp160 (Human immunodeficiency virus 1, UniProt Q6QLK5); test: cell-free HIV fusion peptide-binding blockers – biochemical, uHTS, fluorescence dequenching, […] (AID 1986)
# Cytochrome P450 2C9 [3] = target: T2, Cytochrome P450 2C9 (Homo sapiens, UniProt P11712)
# T2 sequence (P11712 whole entry): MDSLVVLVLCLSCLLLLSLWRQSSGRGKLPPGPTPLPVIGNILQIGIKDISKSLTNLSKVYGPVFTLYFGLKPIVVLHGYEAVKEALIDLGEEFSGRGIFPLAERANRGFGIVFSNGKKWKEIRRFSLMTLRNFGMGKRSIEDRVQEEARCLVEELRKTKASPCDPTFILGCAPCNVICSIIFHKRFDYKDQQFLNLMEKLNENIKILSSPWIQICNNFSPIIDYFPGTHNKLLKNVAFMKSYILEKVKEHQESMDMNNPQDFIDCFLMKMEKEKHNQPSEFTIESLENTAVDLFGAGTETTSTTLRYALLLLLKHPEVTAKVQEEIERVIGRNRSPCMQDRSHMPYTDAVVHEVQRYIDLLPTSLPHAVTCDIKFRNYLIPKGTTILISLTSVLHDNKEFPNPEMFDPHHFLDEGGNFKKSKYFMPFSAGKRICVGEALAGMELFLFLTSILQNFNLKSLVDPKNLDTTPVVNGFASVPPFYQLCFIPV
# [4] = suppression of NO production in INS-1E cells – cell-based, Griess absorbance, dry powder, set 3, dose response (AID 488870); type: functional; conditions: Rattus norvegicus
# [5] = target: T3, Intestinal-type alkaline phosphatase (Mus musculus, UniProt P24822); test: PubChem AID 488875; type: functional
# T3 sequence (P24822 whole entry): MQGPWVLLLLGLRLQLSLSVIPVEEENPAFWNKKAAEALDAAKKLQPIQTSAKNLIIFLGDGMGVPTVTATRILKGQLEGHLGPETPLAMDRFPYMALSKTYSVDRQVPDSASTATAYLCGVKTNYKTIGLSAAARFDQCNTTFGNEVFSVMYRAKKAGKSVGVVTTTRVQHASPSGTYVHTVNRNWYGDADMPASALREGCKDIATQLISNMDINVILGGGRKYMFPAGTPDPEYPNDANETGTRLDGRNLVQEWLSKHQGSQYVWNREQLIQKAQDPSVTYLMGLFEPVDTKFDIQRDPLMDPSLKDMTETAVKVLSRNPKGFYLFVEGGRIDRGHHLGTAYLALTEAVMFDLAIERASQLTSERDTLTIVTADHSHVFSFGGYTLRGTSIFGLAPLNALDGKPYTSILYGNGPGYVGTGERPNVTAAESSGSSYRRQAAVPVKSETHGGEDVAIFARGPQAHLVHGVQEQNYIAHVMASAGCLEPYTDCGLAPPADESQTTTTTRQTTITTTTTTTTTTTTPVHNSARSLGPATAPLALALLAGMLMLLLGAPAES
# [6] = target: T4, Intestinal-type alkaline phosphatase (Homo sapiens, UniProt P09923); test: activation of human intestinal alkaline phosphatase – biochemical, luminescent, uHTS hits, set 2, dose response (AID 488817); type: functional;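 note: potency of activators that raise enzyme activity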
# T4 sequence (P09923 whole entry): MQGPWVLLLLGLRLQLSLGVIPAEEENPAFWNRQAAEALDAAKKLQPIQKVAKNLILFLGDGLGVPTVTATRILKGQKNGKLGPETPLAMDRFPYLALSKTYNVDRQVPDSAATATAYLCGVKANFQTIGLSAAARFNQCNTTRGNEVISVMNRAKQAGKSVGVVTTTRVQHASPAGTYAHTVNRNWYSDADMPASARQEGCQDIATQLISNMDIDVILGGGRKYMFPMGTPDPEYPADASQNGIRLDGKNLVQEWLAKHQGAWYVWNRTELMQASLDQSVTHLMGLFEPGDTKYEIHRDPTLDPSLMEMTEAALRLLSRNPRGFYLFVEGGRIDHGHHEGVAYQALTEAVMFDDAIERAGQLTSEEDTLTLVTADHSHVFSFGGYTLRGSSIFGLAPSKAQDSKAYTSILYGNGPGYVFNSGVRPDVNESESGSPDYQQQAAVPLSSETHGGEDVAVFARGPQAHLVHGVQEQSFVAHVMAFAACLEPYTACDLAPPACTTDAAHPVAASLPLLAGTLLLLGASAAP
# [7] = target: T4, Intestinal-type alkaline phosphatase; test: human intestinal alkaline phosphatase activators, dose response, biochemical, luminescence, uHTS hits (AID 463120); type: functional
# [8] = target: T5, Alkaline phosphatase, tissue-nonspecific isozyme (Homo sapiens, UniProt P05186); test: activation of tissue-nonspecific alkaline phosphatase – biochemical, TNAP isozyme, human IAP uHTS hits, selectivity assay for human IAP activator project, dose response (AID 488886); type: functional;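 note: potency of compounds raising TNAP activity as a selectivity check on IAP activators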
# T5 sequence (P05186 whole entry): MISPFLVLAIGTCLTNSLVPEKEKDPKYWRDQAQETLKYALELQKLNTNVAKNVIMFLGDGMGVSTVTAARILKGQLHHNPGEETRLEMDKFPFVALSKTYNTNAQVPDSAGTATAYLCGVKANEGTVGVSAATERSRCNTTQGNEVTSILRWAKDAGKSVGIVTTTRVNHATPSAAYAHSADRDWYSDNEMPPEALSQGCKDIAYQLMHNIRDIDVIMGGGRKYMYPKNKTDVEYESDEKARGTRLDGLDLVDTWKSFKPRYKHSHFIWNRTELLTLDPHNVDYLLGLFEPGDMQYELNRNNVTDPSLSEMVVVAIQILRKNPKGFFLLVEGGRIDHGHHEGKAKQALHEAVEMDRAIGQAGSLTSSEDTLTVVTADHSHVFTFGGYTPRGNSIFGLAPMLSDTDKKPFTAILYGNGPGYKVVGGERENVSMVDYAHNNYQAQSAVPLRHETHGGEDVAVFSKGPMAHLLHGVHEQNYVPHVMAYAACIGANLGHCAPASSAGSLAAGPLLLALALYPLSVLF
# [9] = target: T4, Intestinal-type alkaline phosphatase; test: inhibition of human intestinal alkaline phosphatase – biochemical, dose response (AID 488876); type: functional
# [10] = target: T5, Alkaline phosphatase, tissue-nonspecific isozyme; test: TNAP enzyme inhibition by screening hits, dose response, selectivity assay for mouse IAP inhibitor project, biochemical, human TNAP, uHTS hits (AID 488906); type: functional
# Aminopeptidase N = target: T6, Aminopeptidase N (Plasmodium falciparum FcB1/Columbia, UniProt O96935); test: malaria alanyl aminopeptidase activity blockers – biochemical, fluorogenic H-Leu-NHMec substrate, 1536-well (AID 1445); parameters: species or system Plasmodium falciparum 3D7, 3D7
# T6 sequence (O96935 whole entry): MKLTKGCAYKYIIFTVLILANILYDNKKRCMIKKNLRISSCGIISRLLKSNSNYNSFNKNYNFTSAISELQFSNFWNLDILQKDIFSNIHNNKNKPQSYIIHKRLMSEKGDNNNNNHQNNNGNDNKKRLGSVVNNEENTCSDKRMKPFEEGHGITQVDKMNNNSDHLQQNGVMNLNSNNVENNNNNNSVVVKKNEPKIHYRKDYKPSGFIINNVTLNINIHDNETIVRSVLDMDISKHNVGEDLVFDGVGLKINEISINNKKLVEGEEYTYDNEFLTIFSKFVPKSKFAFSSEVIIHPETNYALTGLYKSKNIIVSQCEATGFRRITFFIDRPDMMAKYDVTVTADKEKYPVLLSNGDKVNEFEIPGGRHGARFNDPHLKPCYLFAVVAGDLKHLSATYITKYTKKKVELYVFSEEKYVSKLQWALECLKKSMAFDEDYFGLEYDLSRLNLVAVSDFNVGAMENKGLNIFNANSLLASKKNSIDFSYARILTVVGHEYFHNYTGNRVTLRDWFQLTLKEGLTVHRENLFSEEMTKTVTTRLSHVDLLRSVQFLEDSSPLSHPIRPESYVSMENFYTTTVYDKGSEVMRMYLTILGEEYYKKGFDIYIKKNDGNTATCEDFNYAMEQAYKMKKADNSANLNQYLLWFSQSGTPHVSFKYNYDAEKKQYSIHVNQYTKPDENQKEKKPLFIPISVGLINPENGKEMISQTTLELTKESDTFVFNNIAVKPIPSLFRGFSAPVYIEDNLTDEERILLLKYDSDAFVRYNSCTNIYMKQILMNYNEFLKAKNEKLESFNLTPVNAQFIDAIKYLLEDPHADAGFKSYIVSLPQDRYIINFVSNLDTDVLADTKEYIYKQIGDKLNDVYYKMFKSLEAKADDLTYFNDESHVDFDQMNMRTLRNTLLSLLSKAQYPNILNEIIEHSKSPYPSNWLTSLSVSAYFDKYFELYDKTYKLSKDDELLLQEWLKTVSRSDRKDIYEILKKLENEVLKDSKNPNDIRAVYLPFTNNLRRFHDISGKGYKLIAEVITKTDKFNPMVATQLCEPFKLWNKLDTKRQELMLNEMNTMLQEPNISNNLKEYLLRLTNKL
# [11] = target: Induced myeloid leukemia cell differentiation protein Mcl-1 (Homo sapiens, UniProt Q07820); test: blockers of MCL1 binding to BIM peptide – biochemical, fluorescence polarization, BIM-BH3 peptide, 1536-well, dose response (AID 2217)
# Chain of Induced myeloid leukemia cell differentiation protein Mcl-1 (Q07820 whole entry): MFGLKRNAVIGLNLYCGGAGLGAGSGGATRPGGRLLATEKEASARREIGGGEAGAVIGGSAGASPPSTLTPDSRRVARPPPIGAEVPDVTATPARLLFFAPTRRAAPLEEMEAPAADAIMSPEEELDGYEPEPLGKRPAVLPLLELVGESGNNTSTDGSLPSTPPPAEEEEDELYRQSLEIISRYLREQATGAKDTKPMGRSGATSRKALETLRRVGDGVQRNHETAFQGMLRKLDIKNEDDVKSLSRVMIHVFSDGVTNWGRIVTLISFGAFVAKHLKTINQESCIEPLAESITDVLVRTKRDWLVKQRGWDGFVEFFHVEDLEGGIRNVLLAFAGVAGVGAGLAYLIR
# Bcl-2-like protein 1 = Bcl-2-like protein 1 (Homo sapiens, UniProt Q07817); test: blockers of BCLXL peptide binding – biochemical, fluorescence polarization, 1536-well, selectivity assay for MCL1 inhibitor project, dose response (AID 2218)
# Chain of Bcl-2-like protein 1 (Q07817 whole entry): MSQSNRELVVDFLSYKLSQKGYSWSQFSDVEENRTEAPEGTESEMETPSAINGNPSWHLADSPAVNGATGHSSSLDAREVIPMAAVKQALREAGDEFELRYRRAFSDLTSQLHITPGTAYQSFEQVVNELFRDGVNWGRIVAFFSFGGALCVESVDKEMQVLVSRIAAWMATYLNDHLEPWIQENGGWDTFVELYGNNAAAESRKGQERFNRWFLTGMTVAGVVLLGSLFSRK
# [12] = target: T3, Intestinal-type alkaline phosphatase; test: PubChem AID 488785; type: functional
# Cytochrome P450 2C19 = Cytochrome P450 2C19 (Homo sapiens, UniProt P33261); test: Cytochrome panel assay with activity outcomes. Panel member name: p450-cyp2c19 Compounds with AC50 equal or less than 10 uM are considered active; type: functional; conditions: read-out: AC50
# Chain of Cytochrome P450 2C19 (P33261 whole entry): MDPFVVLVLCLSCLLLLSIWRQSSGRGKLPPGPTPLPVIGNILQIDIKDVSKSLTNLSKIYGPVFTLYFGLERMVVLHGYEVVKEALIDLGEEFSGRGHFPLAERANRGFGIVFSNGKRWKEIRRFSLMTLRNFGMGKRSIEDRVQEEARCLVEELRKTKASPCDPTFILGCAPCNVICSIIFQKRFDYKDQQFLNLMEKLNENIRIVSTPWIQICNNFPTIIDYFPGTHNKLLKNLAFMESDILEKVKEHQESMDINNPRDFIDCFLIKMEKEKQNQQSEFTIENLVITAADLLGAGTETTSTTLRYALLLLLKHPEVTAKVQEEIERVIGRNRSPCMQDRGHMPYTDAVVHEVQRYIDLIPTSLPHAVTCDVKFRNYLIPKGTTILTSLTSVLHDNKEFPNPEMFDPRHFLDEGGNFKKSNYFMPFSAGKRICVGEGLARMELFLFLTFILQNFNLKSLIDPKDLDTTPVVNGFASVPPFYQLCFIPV
# Cytochrome P450 1A2 = target: T7, Cytochrome P450 1A2 (Homo sapiens, UniProt P05177);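 note: PubChem cytochrome P450 panel assay, CYP1A2 panel member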
# T7 sequence (P05177 whole entry): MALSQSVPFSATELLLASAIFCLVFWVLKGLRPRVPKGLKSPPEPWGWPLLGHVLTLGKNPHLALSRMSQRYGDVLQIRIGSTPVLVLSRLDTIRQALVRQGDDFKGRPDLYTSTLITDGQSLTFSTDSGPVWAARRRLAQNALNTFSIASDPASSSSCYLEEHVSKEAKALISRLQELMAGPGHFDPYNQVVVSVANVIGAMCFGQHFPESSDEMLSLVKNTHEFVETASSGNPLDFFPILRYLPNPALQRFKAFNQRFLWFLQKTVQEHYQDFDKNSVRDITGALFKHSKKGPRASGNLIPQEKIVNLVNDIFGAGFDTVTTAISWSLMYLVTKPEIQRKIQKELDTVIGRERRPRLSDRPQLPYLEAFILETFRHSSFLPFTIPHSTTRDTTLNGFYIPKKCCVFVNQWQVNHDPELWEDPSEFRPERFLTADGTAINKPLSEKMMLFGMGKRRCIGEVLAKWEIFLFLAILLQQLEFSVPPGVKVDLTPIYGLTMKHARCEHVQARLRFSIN
# Cytochrome P450 2C9 [13] = target: T2, Cytochrome P450 2C9; remark: listed apart in the source
# [14] = A cytotoxicity screen of small molecule inhibitors of the PhoP region in Salmonella typhi identified in the primary screen. [Related pubchem assays: 1850, 1864, 1985 ]; type: functional
# [15] = restored growth of temperature-sensitive Burl-1 yeast – whole organism, S. cerevisiae, Burl-1 ts mutant, luminescence, counter-screen for SUMOylation pathway inhibitor project, dose response (AID 463199); type: functional
# [16] = target: UDP-galactopyranose mutase (Mycobacterium tuberculosis, UniProt P9WIQ1); test: Inhibitors of Mycobacterium tuberculosis UDP-galactopyranose mutase (UGM) enzyme Measured in Biochemical System Using Plate Reader - 2105-02_Inhibitor_Dose_CherryPick_Activity. [Related pubchem assays (depositor defined):AID504439]
# Chain of UDP-galactopyranose mutase (P9WIQ1 whole entry): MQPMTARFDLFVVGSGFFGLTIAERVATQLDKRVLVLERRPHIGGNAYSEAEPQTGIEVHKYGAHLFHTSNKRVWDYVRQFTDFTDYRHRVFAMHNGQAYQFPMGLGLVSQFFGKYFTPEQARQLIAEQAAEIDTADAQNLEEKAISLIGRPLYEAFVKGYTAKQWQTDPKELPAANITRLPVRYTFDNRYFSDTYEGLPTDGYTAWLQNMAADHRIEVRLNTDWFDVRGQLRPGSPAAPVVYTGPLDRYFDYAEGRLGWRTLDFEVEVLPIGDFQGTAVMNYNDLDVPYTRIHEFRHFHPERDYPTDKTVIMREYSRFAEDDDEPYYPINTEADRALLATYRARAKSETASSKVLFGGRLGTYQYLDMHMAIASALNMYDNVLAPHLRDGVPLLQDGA
# HEK293 = test: cells; conditions: Homo sapiens;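 note: cells exposed to compound for 14 hours overnight before viability readout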
# Tumor necrosis factor = Tumor necrosis factor (Homo sapiens, UniProt P01375); test: analog potency on TNFa NF-kB signaling – cell-based, revised, SAR follow-up (AID 2337); type: functional
# Chain of Tumor necrosis factor (P01375 whole entry, the tested form may be a part): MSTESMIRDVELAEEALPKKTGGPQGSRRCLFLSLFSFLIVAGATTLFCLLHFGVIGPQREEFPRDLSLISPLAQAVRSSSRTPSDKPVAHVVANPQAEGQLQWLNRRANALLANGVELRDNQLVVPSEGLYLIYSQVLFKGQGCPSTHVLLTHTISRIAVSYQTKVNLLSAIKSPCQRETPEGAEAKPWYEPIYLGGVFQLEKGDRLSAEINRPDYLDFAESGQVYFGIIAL
# [17] = target: Nucleotide-binding oligomerization domain-containing protein 1 (Homo sapiens, UniProt Q9Y239); test: blockers of NOD1 pathway activity – revised, SAR follow-up (AID 2333); type: functional
# Chain of Nucleotide-binding oligomerization domain-containing protein 1 (Q9Y239 whole entry, the tested form may be a part): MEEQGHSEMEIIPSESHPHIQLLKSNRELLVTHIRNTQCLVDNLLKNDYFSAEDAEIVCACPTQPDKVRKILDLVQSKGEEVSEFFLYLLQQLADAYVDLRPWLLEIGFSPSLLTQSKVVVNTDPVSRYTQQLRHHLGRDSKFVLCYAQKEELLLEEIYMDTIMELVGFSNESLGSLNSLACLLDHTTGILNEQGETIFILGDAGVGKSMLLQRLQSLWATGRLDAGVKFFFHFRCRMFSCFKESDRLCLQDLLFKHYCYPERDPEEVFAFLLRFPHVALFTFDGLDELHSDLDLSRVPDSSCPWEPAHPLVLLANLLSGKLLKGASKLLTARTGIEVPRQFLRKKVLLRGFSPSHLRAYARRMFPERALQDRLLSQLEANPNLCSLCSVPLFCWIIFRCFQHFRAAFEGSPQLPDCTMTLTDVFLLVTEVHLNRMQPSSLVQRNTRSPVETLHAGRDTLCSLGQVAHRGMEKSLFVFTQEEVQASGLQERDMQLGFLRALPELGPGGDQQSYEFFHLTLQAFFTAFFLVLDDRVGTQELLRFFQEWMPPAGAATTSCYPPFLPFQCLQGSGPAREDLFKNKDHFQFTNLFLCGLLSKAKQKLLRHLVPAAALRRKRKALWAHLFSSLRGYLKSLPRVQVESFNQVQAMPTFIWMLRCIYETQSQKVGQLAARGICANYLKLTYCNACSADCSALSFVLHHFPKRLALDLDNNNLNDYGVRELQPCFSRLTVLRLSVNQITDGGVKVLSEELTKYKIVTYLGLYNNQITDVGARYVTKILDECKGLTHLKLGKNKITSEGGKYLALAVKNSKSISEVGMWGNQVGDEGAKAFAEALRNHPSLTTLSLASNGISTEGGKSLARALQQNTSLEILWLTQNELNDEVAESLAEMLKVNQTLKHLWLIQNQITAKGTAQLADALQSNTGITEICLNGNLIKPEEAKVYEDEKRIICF
# [18] = MIN6 cell viability loss – mouse insulinoma, cytotoxicity control, dose response (AID 2122); type: functional;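 note: confirmatory high-throughput counterscreen run to flag cytotoxic compounds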
# [19] = decrease of insulin promoter-GFP reporter – imaging, high-content screening, mouse beta cells (AID 1628); type: functional; conditions: MIN6
# Chain of Cytochrome P450 2D6 (P10635 whole entry): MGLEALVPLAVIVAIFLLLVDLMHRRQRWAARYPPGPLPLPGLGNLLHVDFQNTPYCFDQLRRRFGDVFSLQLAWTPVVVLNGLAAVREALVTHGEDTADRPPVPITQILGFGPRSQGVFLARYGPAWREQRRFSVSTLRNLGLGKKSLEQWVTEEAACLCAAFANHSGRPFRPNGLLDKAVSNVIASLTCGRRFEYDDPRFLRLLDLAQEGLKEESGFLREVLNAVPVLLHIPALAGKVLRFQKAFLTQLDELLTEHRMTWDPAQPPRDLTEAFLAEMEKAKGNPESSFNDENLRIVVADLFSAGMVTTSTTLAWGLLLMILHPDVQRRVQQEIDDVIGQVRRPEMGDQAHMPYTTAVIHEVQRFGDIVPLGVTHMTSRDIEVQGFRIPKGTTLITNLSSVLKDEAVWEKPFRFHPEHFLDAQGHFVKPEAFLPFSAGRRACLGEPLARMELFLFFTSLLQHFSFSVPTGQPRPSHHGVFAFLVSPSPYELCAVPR
structure (smiles),measurement,setting,value
COc1ccccc1NC(=O)c1nc[nH]c1C(=O)Nc1ccccc1OC,AC50,Cytochrome P450 2D6,inconclusive
O=C(O)CCN1C(=O)/C(=C\c2ccc(OCc3ccccc3)c(OCc3ccccc3)c2)SC1=S,EC50,[1],18.7 µM (active)
same,IC50,[2],10.2 µM (active)
Cc1ccc(NC(=O)c2nnn(-c3cc(C)cc(C)c3)c2N)cc1,AC50,Cytochrome P450 2C9 [3],inconclusive
C[C@@H]1CN([C@@H](C)CO)C(=O)c2cccc(NC(=O)Nc3cccc4ccccc34)c2O[C@H]1CN(C)C(=O)Nc1ccc2c(c1)OCO2,AC50,[4],51.5 µM (active)
COc1cc(NC(=O)NCC2CCN(Cc3ccccc3C)CC2)cc(OC)c1OC,EC50,[5],52.6 µM (active)
same,EC50,[6],64.7 µM (active)
same,EC50,[7],70 µM (active)
same,EC50,[8],73.9 µM (active)
Nc1nnc(CC(=O)N/N=C/c2cc([N+](=O)[O-])cc(Br)c2O)s1,IC50,[9],> 100 µM (inactive)
same,IC50,[10],20.6 µM (active)
same,IC50,Aminopeptidase N,30 µM (active)
same,IC50,[11],23.1 µM (not active)
same,IC50,Bcl-2-like protein 1,> 109 µM (not active)
same,IC50,[12],2.79 µM (active)
COC(=O)[C@@]1(Cc2ccc(F)cc2)[C@@H]2[C@@H](CC(=O)[C@H]2CC(=O)C(=O)N2CCCC2)CN1C(=O)c1ccccc1,AC50,Cytochrome P450 2C19,15.8 µM (inconclusive)
same,AC50,Cytochrome P450 1A2,inconclusive
same,AC50,Cytochrome P450 2C9 [13],39.8 µM (inconclusive)
CC1CCN(CCCCOc2ccc(Cl)cc2)CC1,EC50,[14],> 50 µM (active)
same,AC50,[15],46.3 µM (active)
CCCCCCNC(=O)C(C#N)c1nc2ccccc2nc1N1CCOCC1 (stereo unspecified),AC50,[16],70 µM (active)
O=C(Nc1ccc(OC(F)(F)F)cc1)c1ccc(CN2CCc3ccccc3C2)cc1,IC50,HEK293,> 20 µM (inactive)
same,IC50,Tumor necrosis factor,0.0244 µM (active)
same,IC50,[17],< 0.0391 µM (active)
CN1CCN(Cc2ccc(OCc3ccccc3)cc2)CC1,IC50,[18],1.8 µM (active)
same,IC50,[19],3.08 µM (active)
